Measurements reported in patent US20260224588A1, “BENZODIAZEPINONE-DERIVED INHIBITORS OF EGFR AND HER2” (The Research Foundation for the State University of New York, priority 2023, published 2026).
Entries after “also recorded” stand apart in the source; their conditions may differ. Where two headings read alike, the source gives them in different places.

What was measured:
PDGFRB = target: T1, PDGFRB (Homo sapiens, UniProt P09619); assay: KINOMEscan; assay type: binding; conditions: 1 μM of compound 4; read-out: POC
T1 construct: purchased Eurofins DiscoverX Corporation (KINOMEscan)

PIK3CA(I800L) = PIK3CA(I800L) (Homo sapiens, UniProt P42336, I800L); assay: KINOMEscan; assay type: binding; conditions: 1 μM of compound 4; read-out: POC
PIP5K2B = PIP5K2B (Homo sapiens, UniProt P78356); assay: KINOMEscan; assay type: binding; conditions: 1 μM of compound 4; read-out: POC
CAMKK2 = CAMKK2 (Homo sapiens, UniProt Q96RR4); assay: KINOMEscan; assay type: binding; conditions: 1 μM of compound 4; read-out: POC
NEK7 = target: T2, NEK7 (Homo sapiens, UniProt Q8TDX7); assay: KINOMEscan; assay type: binding; conditions: 1 μM of compound 4; read-out: POC
T2 construct: purchased Eurofins DiscoverX Corporation (KINOMEscan)

AMPK-alpha1 = AMPK-alpha1 (Homo sapiens, UniProt Q13131); assay: KINOMEscan; assay type: binding; conditions: 1 μM of compound 4; read-out: POC
CSNK1D = CSNK1D (Homo sapiens, UniProt P48730); assay: KINOMEscan; assay type: binding; conditions: 1 μM of compound 4; read-out: POC
PRKCH = PRKCH (Homo sapiens, UniProt P24723); assay: KINOMEscan; assay type: binding; conditions: 1 μM of compound 4; read-out: POC
LKB1 = LKB1 (Homo sapiens, UniProt Q15831); assay: KINOMEscan; assay type: binding; conditions: 1 μM of compound 4; read-out: POC
AMPK-alpha2 = AMPK-alpha2 (Homo sapiens, UniProt P54646); assay: KINOMEscan; assay type: binding; conditions: 1 μM of compound 4; read-out: POC
ROCK2 = target: T3, ROCK2 (Homo sapiens, UniProt O75116); assay: KINOMEscan; assay type: binding; conditions: 1 μM of compound 4; read-out: POC
T3 construct: purchased Eurofins DiscoverX Corporation (KINOMEscan screening service)

[1] = tested on: L858R EGFR mutant Ba/F3 cells; assay: Ba/F3 cellular antiproliferative experiments; assay type: cell-based; conditions: Mus musculus, BaF3, 72 h, Ba/F3, 72 hours; read-out: Anti-proliferative EC50 ± SE, LR
Experimental: (§1) Ba/F3 Cellular Antiproliferative Experiments. The parental Ba/F3 cells was a generous gift from the laboratory of Dr. David Weinstock (in 2014), Dr. Pasi Jänne (2020) and was used to generate the wildtype EGFR, wildtype HER2, L858R, and L858R/T790M EGFR mutant Ba/F3 cells. These cells were previously characterized as described. All Ba/F3 cells were cultured in RPMI1640 media with 10% fetal bovine serum and 1% penicillin and streptomycin. All cell lines were tested negative for Mycoplasma using Mycoplasma Plus PCR Primer Set (Agilent) and were passaged and/or used for no longer than 4 weeks for all experiments. Assay reagents were purchased from MilliporeSigma (Cat #R7017-5G). Ba/F3 cells were plated and treated with increasing concentrations of inhibitors in triplicate for 72 hours. Compounds were dispensed using the Tecan D300e Digital Dispenser. Cellular growth or the inhibition of growth was assessed by resazurin viability assay. All experiments were repeated at least 3 times and values were reported as an average of n=3 with standard deviation.

[2] = tested on: L858R/T790M EGFR mutant Ba/F3 cells; assay: Ba/F3 cellular antiproliferative experiments; assay type: cell-based; conditions: Ba/F3, 72 hours, read-out: Anti-proliferative EC50 ± SE, LR/TM
Experimental: as §1

[3] = tested on: wildtype HER2 Ba/F3 cells; assay: Ba/F3 cellular antiproliferative experiments; assay type: cell-based; conditions: Mus musculus, BaF3; Ba/F3, 72 hours; read-out: Anti-proliferative EC50 ± SE, HER2
Experimental: as §1

MAP3K4 = MAP3K4 (Homo sapiens, UniProt Q9Y6R4); assay: KINOMEscan; assay type: binding; conditions: 1 μM of compound 4; read-out: POC
[4] = target: T4, ABL1(T315I)-phosphorylated (Homo sapiens, UniProt P00519, T315I); assay: KINOMEscan; assay type: binding; conditions: 1 μM of compound 4; read-out: POC
T4 construct: purchased Eurofins DiscoverX Corporation

ABL1-phosphorylated = target: T5, ABL1-phosphorylated (Homo sapiens, UniProt P00519); assay: KINOMEscan; assay type: binding; conditions: 1 μM of compound 4; read-out: POC
T5 construct: purchased Eurofins DiscoverX Corporation

NLK = target: T6, NLK (Homo sapiens, UniProt Q9UBE8); assay: KINOMEscan; assay type: binding; conditions: 1 μM of compound 4; read-out: POC
T6 construct: purchased Eurofins DiscoverX Corporation (KINOMEscan)

PIK4CB = PIK4CB (Homo sapiens, UniProt Q9UBF8); assay: KINOMEscan; assay type: binding; conditions: 1 μM of compound 4; read-out: POC
MARK2 = MARK2 (Homo sapiens, UniProt Q7KZI7); assay: KINOMEscan; assay type: binding; conditions: 1 μM of compound 4; read-out: POC
PHKG2 = PHKG2 (Homo sapiens, UniProt P15735); assay: KINOMEscan; assay type: binding; conditions: 1 μM of compound 4; read-out: POC
[5] = tested on: EGFR (delE746-A750) in HCC827 cells; assay: Western blotting of EGFR phosphorylation; assay type: cell-based, human; conditions: 6 hours treatment
Experimental: FIG. 2. […] All experiments performed after 6 hours treatments of inhibitors or DMSO controls and Western blots are representative of at least three independent experiments.
Western blotting. Cells were collected and lysed with lysis buffer (5M NaCl, 1M TRIS pH 8.0, 10% SDS, 10% Triton X-100 and a tablet of protease inhibitors) and processed for Western blotting analysis. Primary antibodies used; phospho-EGFR (Tyr1068; #2234, 1:1,000), EGFR (#4267; 1:1,000), phospho-AKT (Ser473; #4060, 1:1,000), AKT (#9272, 1:1,000), phospho-ERK1/2 (Thr202/Tyr204; #4370, 1:1,000), and ERK1/2 (#4695, 1:1,000) antibodies; were purchased from Cell Signaling Technology. Secondary Goat anti-rabbit IgG starbright blue 700 and Anti-tubulin hFAB Rhodamine Tubulin were purchased from Bio-rad.

PIK3CG = PIK3CG (Homo sapiens, UniProt P48736); assay: KINOMEscan; assay type: binding; conditions: 1 μM of compound 4; read-out: POC
HIPK1 = target: T7, HIPK1 (Homo sapiens, UniProt Q86Z02); assay: KINOMEscan; assay type: binding; conditions: 1 μM of compound 4; read-out: POC
T7 construct: purchased Eurofins DiscoverX Corporation

CAMK1 = CAMK1 (Homo sapiens, UniProt Q14012); assay: KINOMEscan; assay type: binding; conditions: 1 μM of compound 4; read-out: POC
PIK3C2B = PIK3C2B (Homo sapiens, UniProt O00750); assay: KINOMEscan; assay type: binding; conditions: 1 μM of compound 4; read-out: POC
HIPK4 = target: T8, HIPK4 (Homo sapiens, UniProt Q8NE63); assay: KINOMEscan; assay type: binding; conditions: 1 μM of compound 4; read-out: POC
T8 construct: purchased Eurofins DiscoverX Corporation

MAP3K4, sequence (Q9Y6R4 whole entry): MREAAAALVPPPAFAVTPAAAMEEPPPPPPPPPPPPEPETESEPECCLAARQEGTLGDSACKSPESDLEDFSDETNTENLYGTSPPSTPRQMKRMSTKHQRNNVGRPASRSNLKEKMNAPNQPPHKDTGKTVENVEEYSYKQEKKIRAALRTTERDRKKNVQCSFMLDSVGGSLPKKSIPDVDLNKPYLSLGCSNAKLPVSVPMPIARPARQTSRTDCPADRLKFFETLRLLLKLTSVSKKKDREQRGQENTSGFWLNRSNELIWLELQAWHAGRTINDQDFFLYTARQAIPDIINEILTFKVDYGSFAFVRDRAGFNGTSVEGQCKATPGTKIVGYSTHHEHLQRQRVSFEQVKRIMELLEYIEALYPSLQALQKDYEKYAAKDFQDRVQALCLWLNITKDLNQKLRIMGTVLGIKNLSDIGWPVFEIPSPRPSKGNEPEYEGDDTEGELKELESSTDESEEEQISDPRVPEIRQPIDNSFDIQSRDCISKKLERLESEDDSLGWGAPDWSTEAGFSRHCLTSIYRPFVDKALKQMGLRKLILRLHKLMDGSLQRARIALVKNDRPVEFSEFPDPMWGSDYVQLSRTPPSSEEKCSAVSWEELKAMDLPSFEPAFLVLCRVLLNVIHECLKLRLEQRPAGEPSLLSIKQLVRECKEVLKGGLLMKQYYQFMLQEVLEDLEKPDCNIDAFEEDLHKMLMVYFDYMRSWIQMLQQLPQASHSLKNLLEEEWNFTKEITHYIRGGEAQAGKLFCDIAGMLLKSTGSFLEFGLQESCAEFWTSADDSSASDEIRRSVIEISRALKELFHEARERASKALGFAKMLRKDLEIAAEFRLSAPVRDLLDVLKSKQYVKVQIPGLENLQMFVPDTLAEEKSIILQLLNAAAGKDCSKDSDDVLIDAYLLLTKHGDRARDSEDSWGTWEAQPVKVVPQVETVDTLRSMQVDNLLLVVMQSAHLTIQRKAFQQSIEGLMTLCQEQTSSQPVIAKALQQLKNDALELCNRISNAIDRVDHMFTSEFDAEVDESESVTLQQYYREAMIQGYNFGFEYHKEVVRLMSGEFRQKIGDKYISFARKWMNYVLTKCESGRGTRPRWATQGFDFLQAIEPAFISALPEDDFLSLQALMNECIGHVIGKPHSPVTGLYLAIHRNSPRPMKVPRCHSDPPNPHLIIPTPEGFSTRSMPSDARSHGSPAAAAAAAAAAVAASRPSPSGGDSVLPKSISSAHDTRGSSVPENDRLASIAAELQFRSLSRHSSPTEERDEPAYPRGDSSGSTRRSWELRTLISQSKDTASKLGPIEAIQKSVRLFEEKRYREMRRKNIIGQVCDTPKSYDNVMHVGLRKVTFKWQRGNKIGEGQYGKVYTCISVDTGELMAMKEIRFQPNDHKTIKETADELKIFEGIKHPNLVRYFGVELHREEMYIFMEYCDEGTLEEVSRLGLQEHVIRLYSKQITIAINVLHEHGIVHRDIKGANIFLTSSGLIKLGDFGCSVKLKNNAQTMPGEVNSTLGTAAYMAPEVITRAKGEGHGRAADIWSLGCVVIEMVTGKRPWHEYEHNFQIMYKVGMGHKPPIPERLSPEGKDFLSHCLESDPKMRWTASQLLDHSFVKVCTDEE
MARK2, sequence (Q7KZI7 whole entry): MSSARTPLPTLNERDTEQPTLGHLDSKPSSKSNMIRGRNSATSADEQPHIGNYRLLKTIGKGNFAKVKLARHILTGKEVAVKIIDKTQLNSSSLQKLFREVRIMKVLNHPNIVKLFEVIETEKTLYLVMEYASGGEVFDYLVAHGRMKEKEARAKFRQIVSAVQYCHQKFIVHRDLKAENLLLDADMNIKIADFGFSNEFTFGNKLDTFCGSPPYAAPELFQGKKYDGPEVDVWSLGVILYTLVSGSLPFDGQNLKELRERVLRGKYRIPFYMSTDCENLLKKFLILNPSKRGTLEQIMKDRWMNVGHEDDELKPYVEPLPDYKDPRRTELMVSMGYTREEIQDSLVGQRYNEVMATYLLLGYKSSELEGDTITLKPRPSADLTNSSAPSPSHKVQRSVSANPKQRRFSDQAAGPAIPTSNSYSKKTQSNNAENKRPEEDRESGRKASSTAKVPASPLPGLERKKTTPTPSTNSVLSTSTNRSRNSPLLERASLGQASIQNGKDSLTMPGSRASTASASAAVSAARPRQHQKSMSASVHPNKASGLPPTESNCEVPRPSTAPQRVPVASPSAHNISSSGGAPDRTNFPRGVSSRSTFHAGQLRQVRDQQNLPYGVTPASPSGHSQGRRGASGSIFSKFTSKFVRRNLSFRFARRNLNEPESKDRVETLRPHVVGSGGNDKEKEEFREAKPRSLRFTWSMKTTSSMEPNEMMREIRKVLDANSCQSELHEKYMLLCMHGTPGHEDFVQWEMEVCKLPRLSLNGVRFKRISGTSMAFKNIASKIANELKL
T6 sequence (Q9UBE8 whole entry): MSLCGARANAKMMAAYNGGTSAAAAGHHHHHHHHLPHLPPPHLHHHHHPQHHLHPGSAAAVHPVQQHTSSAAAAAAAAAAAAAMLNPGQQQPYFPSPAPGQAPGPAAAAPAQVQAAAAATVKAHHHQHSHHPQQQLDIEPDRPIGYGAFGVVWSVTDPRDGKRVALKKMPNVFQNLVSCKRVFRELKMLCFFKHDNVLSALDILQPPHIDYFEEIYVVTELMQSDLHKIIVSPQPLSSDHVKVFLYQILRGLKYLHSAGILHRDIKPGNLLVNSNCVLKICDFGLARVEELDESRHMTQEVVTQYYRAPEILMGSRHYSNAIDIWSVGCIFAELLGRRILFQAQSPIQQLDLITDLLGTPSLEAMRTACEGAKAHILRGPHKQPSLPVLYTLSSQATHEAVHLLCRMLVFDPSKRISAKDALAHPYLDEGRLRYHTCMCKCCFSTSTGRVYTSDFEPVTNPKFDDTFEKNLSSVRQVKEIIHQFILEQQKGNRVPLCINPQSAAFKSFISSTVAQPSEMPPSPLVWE
PRKCH, sequence (P24723 whole entry): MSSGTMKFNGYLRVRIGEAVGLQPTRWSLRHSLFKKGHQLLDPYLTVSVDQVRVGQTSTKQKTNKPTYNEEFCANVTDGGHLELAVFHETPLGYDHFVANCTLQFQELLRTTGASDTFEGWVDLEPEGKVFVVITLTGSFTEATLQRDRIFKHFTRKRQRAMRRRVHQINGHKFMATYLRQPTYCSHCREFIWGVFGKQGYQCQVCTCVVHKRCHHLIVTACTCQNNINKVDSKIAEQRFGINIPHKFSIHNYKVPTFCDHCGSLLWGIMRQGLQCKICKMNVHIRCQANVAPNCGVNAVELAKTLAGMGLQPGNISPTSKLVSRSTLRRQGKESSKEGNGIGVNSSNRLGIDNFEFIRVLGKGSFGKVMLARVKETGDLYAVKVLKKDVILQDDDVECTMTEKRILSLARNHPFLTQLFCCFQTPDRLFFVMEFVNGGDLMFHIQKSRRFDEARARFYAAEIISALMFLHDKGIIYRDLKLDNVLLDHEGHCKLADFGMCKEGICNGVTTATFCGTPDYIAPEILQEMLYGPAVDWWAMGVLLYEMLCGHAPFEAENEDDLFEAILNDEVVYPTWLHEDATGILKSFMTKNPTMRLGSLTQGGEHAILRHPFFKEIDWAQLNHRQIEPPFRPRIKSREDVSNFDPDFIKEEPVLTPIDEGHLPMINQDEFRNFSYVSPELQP
PIP5K2B, sequence (P78356 whole entry): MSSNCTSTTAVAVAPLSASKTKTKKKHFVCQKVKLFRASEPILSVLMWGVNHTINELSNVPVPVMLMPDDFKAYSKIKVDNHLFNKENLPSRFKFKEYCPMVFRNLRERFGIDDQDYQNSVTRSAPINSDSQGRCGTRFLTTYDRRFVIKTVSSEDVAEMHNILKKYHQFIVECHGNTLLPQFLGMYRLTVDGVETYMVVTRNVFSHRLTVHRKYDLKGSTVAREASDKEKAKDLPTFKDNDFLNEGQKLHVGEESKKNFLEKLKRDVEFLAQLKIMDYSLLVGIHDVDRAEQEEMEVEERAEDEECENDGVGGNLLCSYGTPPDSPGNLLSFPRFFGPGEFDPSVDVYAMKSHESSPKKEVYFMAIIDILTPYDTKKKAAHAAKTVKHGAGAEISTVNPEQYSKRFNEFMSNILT
AMPK-alpha2, sequence (P54646 whole entry): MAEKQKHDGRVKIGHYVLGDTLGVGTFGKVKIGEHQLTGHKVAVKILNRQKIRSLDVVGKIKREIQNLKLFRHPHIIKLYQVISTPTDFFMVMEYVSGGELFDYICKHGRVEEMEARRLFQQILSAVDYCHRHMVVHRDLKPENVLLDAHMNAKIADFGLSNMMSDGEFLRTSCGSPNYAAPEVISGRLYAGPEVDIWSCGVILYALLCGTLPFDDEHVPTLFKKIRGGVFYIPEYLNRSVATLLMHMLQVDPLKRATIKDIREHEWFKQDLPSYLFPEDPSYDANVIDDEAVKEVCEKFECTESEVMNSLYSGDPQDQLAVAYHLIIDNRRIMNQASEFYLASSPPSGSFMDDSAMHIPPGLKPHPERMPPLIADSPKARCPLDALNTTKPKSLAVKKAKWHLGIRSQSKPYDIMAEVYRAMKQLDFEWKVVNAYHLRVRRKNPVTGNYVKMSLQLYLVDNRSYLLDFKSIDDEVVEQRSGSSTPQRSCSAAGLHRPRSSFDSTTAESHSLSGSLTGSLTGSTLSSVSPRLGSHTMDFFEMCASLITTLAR
PHKG2, sequence (P15735 whole entry): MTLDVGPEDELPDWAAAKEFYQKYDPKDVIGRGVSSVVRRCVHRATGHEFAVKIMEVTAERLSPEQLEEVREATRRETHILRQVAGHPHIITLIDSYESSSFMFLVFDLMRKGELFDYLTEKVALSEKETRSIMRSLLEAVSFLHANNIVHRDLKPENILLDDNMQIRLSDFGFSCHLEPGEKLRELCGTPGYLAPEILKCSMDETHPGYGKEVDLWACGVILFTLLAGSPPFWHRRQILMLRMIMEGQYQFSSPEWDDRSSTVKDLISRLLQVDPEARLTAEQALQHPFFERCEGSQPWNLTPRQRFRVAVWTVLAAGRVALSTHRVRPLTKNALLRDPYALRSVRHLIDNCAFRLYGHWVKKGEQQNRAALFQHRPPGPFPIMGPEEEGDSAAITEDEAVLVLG

Q: Which remaining binding at 1 µM (PDGFRB) does the source give for `C=CC(=O)Nc1ccc(OC)c(Nc2cc(-c3[nH]c(CC)nc3-c3cccc(NC(=O)c4cccc5c4NC(=O)c4ccccc4N5)c3)ccn2)c1` [Compound 4, N-(3-(5-(2-((5-Acrylamido-2-methoxyphenyl)amino)pyridin-4-yl)-2-ethyl-1H-imidazol-4-yl)phenyl)-11-oxo-10,11-dihydro-5H-dibenzo[b,e][1,4]diazepine-9-carboxamide] here?
A: 100%

Q: And the remaining binding at 1 µM (PIK3CA(I800L))?
A: 100%

Q: What about the remaining binding at 1 µM (PIP5K2B) of the same compound?
A: 100%

Q: What about the remaining binding at 1 µM (CAMKK2) of the same compound?
A: 95%

Q: And the remaining binding at 1 µM (NEK7)?
A: 86%

Q: And the remaining binding at 1 µM (AMPK-alpha1)?
A: 81%

Q: What about the remaining binding at 1 µM (CSNK1D) of the same compound?
A: 87%

Q: What about the remaining binding at 1 µM (PRKCH) of the same compound?
A: 69%

Q: And the remaining binding at 1 µM (LKB1)?
A: 100%

Q: What about the remaining binding at 1 µM (AMPK-alpha2) of the same compound?
A: 56%

Q: What about the remaining binding at 1 µM (ROCK2) of the same compound?
A: 94%

Q: What about the EC50 [1] of the same compound?
A: ~200 nM

Q: And the EC50 [2]?
A: 770 ± 390 nM

Q: What about the EC50 ([2]; Mus musculus, BaF3, 72 h) of the same compound?
A: ~750 nM

Q: What about the EC50 [3] of the same compound?
A: 1930 ± 1010 nM

Q: What about the remaining binding at 1 µM (MAP3K4) of the same compound?
A: 100%

Q: What about the remaining binding at 1 µM [4] of the same compound?
A: 100%

Q: And the remaining binding at 1 µM (ABL1-phosphorylated)?
A: 80%

Q: And the remaining binding at 1 µM (NLK)?
A: 48%

Q: What about the remaining binding at 1 µM (PIK4CB) of the same compound?
A: 93%

Q: What about the remaining binding at 1 µM (MARK2) of the same compound?
A: 85%

Q: What about the remaining binding at 1 µM (PHKG2) of the same compound?
A: 73%

Q: And the “EGFR phosphorylation (Western blot)” value [5]?
A: similarly active; also recorded: effectively ablates EGFR (delE746-A750) phosphorylation

Q: What about the remaining binding at 1 µM (PIK3CG) of the same compound?
A: 65%

Q: What about the remaining binding at 1 µM (HIPK1) of the same compound?
A: 51%

Q: What about the remaining binding at 1 µM (CAMK1) of the same compound?
A: 81%

Q: And the remaining binding at 1 µM (PIK3C2B)?
A: 74%

Q: And the remaining binding at 1 µM (HIPK4)?
A: 92%
